Data as given in article PMC5972026 (Journal of medicinal chemistry, 2017).
Entries after “also recorded” stand apart in the source; their conditions may differ. Counter-ions that a name gives are not always drawn.

Assays:
[1] = tested on: A/HK/7/87 virus (H3N2 subtype), wt M2; type: cell-based, influenza A virus
[2] = target: A/M2 wt channel (A/Udorn/72) (Influenza A virus, UniProt P0DOF5); experiment: cell-based; type: cell-based
[3] = tested on: A/HK/7/87 virus (H3N2 subtype), wt M2; type: cell-based, influenza A virus; remark: listed apart in the source
[4] = tested on: MDCK cells; conditions: 100 μM

Chain of A/M2 wt channel (A/Udorn/72) (P0DOF5 whole entry, looked up): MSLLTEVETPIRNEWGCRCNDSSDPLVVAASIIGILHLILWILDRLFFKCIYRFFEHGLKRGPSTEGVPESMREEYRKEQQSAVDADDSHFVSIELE

SMILES | Antiviral activity in the PRA [1] | Binding behaviour [2] | Time after which compound dissociated from the channel [2] [min] | Antiviral activity confirmed in virus yield assay [3] | Reversibility of inhibition [2] | Cytotoxicity at highest concentration tested [4] | inhibition at 100 µM ([2]; read-out: Inhibition after 6 min of treatment, 100 μM, 6 min) [%]
Cl.OC1(CC2CCNCC2)C2CC3CC(C2)CC1C3 (stereo not drawn) [Compound 15, 2-(piperidin-4-ylmethyl)adamantan-2-ol hydrochloride] | active |  |  |  |  |  | 
N=C(N)N1CCC(C23CC4CC(CC(C4)C2)C3)CC1 [Compound 7, N-amidyl-4-(1-adamantyl)piperidine hydrochloride] | did not display antiviral activity | weak binding affinity; also recorded: fast and weak binder | 5 |  |  |  | 
C1CC(C23CC4CC(CC(C4)C2)C3)CCN1 [Compound 2, 4-(1-adamantyl)piperidine hydrochloride] | active | strong binder |  | confirmed | essentially irreversible |  | 
N=C(N)N1CCC(CC2C3CC4CC(C3)CC2C4)CC1 (stereo not drawn) [Compound 20, 4-[(adamantan-2-yl)methyl]piperidine-1-carboximidamide hydrochloride] | did not display antiviral activity | weak binding affinity |  |  |  |  | 
N=C(N)N1CCC(C=C2C3CC4CC(C3)CC2C4)CC1 [Compound 19, 4-[(adamantan-2-ylidene)methyl]piperidine-1-carboximidamide hydrochloride] | did not display antiviral activity | weak binding affinity |  |  |  |  | 
C1CCC(C23CC4CC(CC(C4)C2)C3)NC1 (stereo not drawn) [Compound 8, 2-(1-adamantyl)piperidine hydrochloride] | active | strong binders; also recorded: very slow but strong binding |  | confirmed | essentially irreversible | devoid of cytotoxicity | > 90
